Laboratory results reported in patent publication US6344471B1 (priority 1998, dated 2002).

Experiments:
[1] = molecular target: acetylcholinesterase (Rattus norvegicus, UniProt P37136); assay: biochemical
[2] = test system: rats having a lesion of the entorhinal cortex; details: rat, in vivo, ip
[3] = molecular target: high-affinity DFP binding site; design: species or system rat
[4] = test system: young adult rats; details: rat, in vivo; cited from earlier work

Chain of acetylcholinesterase (P37136 32-614): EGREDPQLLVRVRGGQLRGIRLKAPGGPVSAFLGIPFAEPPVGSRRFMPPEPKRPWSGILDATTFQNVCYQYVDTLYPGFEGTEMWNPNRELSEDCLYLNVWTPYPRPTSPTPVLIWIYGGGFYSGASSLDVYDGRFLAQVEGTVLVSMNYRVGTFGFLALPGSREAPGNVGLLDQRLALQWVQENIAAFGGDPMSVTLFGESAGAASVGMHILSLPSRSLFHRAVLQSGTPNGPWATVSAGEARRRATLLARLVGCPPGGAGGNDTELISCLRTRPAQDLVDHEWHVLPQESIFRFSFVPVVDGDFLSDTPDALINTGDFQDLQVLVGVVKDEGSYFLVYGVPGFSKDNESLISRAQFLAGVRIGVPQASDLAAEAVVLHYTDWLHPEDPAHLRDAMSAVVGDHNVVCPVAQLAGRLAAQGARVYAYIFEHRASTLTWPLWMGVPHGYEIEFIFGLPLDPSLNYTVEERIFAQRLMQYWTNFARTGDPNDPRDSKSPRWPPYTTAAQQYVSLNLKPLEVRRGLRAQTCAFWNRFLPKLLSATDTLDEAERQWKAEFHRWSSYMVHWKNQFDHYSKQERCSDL

## CCCc1c(CC)c(=O)on1C(=O)N1CCCC1 [Example 1, 4-Ethyl-3-propyl-2-(1-pyrrolidinylcarbonyl)-5(2H)-isoxazolone]
[1]
  Ki: > 10000 nM
  selectivity (DFP binding site vs acetylcholinesterase): > 2000
[2]
  antagonism of the learning weakness induced by lesion of the entorhinal cortex: not capable of antagonizing the learning weakness
  learning of the platform position: sped up learning of the platform position considerably
  performance level on the second day of training: same performance level as the vehicle-treated animals after 5 days of training
[3]; read-out: IC50, inhibition of binding of [3H]DFP to the high-affinity binding site
  IC50: 4.8 nM

## COP(=O)(OC)OC=C(Cl)Cl [dichlorvos, reference compound]
[3]
  binding/affinity to the high-affinity DFP binding site ([3H]DFP competition in vitro): binds

## Nc1c2c(nc3ccccc13)CCCC2 [tacrine]
[4]
  improvement of cognitive learning ability: no improvement
